Measured values from patent publication US6753337B2, “Alkynyl containing hydroxamic acid compounds as matrix metalloproteinase/tace inhibitors” (Wyeth Holdings Corporation, priority 1999, dated 2004).
pIC50: −log10 of the molar value. Like-named read-outs stand apart in the source and are kept apart here.

Key:
Assay type in all cases: biochemical
[1] = molecular target: T1, MMP-1 (Homo sapiens, UniProt P03956); assay: MMP-1 inhibition (thiopeptide or fluorescent peptide substrate); settings: for pIC50 / IC50: read-out: MMP1 IC50; for IC50: cells that print nM
T1 sequence (P03956 100-469): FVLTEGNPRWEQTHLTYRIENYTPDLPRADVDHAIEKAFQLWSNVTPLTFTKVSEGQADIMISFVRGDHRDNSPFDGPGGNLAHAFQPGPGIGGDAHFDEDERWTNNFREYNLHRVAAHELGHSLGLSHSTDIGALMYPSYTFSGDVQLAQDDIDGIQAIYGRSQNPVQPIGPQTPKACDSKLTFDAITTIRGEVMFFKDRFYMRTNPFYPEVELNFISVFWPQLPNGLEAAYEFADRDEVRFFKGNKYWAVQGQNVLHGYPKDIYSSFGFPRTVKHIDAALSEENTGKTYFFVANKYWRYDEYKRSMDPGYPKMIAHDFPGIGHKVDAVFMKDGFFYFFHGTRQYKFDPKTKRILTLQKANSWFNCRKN

[2] = molecular target: MMP-9 (Homo sapiens, UniProt P14780); assay: MMP-9 inhibition (thiopeptide or fluorescent peptide substrate); settings: for pIC50: read-out: MMP9 IC50
[3] = molecular target: MMP-13 (Homo sapiens, UniProt P45452); assay: MMP-13 inhibition (thiopeptide or fluorescent peptide substrate); settings: read-out: MMP13 IC50
In short: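 Human recombinant MMP-1, MMP-9 or MMP-13 was run either with a thiopeptide substrate plus DTNB (1 mM working dilution) in 50 mM HEPES pH 7.5, 5 mM CaCl2 (colorimetric), or with a quenched fluorescent peptide in HCBC buffer pH 7.0. Reactions started with substrate; the rate slope was compared with control by Dunnett's test.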

[4] = molecular target: TNF-α converting enzyme (TACE) (Homo sapiens, UniProt P78536); assay: Test procedure for measuring TACE inhibition (fluorescent peptidyl substrate)
In short: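 TACE (1 μg/mL final) preincubated 10 min at room temperature with 1 μM compound in 10 mM Tris pH 7.4, 10% glycerol, DMSO <1%. Treated rates tested against control by Dunnett's test (p<0.05).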

Sequence of MMP-9 (P14780 94-707): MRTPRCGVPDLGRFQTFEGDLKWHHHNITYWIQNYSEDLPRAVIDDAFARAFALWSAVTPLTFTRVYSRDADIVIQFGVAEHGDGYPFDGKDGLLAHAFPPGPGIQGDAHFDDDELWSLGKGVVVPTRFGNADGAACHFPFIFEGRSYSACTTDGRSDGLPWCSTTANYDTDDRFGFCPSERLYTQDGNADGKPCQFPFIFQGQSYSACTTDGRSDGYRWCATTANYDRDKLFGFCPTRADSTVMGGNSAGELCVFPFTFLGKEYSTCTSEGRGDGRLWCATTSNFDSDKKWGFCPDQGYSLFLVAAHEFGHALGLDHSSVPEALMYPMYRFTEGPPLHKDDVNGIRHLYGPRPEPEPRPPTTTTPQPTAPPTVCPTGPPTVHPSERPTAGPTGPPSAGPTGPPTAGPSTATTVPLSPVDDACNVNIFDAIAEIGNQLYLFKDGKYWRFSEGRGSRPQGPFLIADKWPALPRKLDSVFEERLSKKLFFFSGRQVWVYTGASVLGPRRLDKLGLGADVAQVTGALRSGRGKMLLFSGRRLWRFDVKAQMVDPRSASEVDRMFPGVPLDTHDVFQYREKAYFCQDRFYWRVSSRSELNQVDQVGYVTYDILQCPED
Sequence of TNF-α converting enzyme (TACE) (P78536 215-824): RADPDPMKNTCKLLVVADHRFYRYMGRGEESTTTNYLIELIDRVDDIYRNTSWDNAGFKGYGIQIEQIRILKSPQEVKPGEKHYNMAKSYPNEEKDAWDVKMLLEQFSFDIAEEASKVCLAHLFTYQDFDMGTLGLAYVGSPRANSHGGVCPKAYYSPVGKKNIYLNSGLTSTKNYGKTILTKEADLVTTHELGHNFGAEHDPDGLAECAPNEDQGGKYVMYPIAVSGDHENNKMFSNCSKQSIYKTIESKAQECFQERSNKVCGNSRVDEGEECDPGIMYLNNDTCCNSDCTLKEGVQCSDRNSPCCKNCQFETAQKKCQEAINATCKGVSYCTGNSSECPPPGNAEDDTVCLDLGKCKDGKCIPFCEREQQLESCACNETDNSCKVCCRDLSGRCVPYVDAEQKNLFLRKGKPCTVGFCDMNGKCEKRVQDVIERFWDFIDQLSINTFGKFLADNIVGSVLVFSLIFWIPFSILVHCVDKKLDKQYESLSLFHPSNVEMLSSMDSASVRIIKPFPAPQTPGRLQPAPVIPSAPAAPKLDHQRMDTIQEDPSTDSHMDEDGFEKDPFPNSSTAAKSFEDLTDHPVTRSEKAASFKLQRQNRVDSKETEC

`CC#CCOc1ccc(S(=O)(=O)C2(C(=O)NO)CCN(C(CC)CC)CC2)cc1` [Example 27, 4-{[4-(2-Butynyloxy)phenyl]sulfonyl}-1-(3-pentanyl)-piperidine-4-carboxylic acid hydroxyamide] was tested, and the pIC50 [1] was less than 5.00, the pIC50 [2] was 5.81 and the pIC50 [3] was 6.37. It also gave a pIC50 [4] of 6.77.
`C#CCOc1ccc(S(=O)(=O)C2(C(=O)NO)CCN(Cc3ccc(OC)cc3)CC2)cc1` [Example 28, 1-(4-Methoxy-benzyl)-4-(4-prop-2-ynyloxy-benzenesulfonyl)-piperidine-4-carboxylic acid hydroxyamide] showed an IC50 [1] of 106 nM, a pIC50 [2] of 7.81 and a pIC50 [3] of 8.28. It also gave a pIC50 [4] of 6.82.
With `C#CCOc1ccc(S(=O)(=O)C2(C(=O)NO)CCN(Cc3ccc(Cl)cc3)CC2)cc1` [Example 29, 1-(4-Chlorobenzyl)-4-(4-prop-2-ynyloxy-benzenesulfonyl)-piperidine-4-carboxylic acid hydroxyamide] the IC50 [1] was 91 nM, the pIC50 [2] was 7.80 and the pIC50 [3] was 8.33. The pIC50 [4] was 6.90.
For `CC#CCOc1ccc(SCC2(C(=O)NO)CCN(C(=O)OC(C)(C)C)CC2)cc1` [Example 30, tert-butyl-4-({[4-(2-butynyloxy)phenyl]sulfanyl}methyl)-4-[(hydroxyamino)-carbonyl]-1-piperidinecarboxylate], the pIC50 [1] was less than 5.00, the pIC50 [2] was 5.23 and the pIC50 [3] was 5.54. The pIC50 [4] was 6.99.
With `CC#CCOc1ccc(SCC2(C(=O)NO)CCNCC2)cc1` [Example 31, 4-({[4-(But-2-ynyloxy)phenyl]thio}methyl)-N-hydroxypiperidine-4-carboxamide] the pIC50 [1] was less than 5.00, the pIC50 [2] was less than 5.00 and the pIC50 [3] was less than 5.00. It also gave a pIC50 [4] of 6.50.
For `CC#CCOc1ccc([S+]([O-])CC2(C(=O)NO)CCN(C(=O)OC(C)(C)C)CC2)cc1` (centres unmarked) [Example 32, tert-Butyl-4-({[4-(2-butynyloxy)phenyl]sulfinyl}methyl)-4-[(hydroxyamino)-carbonyl]-1-piperidinecarboxylate], the pIC50 [1] was less than 5.00, the pIC50 [2] was less than 5.00 and the pIC50 [3] was 5.56. For the same compound, the pIC50 [4] was 7.00.
`CC#CCOc1ccc([S+]([O-])CC2(C(=O)NO)CCNCC2)cc1` (centres unmarked) [Example 33, 4-[[[4-(2-Butynyloxy)phenyl]sulfinyl]methyl]-N-hydroxy-4-piperidinecarboxamide] gave a pIC50 [1] of less than 5.00, a pIC50 [2] of less than 5.30 and a pIC50 [3] of roughly 5.00. It also gave a pIC50 [4] of 6.49.
`CC#CCOc1ccc(S(=O)(=O)CC2(C(=O)NO)CCN(C(=O)OC(C)(C)C)CC2)cc1` [Example 34, tert-Butyl-4-({[4-(but-2-ynyloxy)phenyl]sulfonyl}methyl)-4-[(hydroxyamino)-carbonyl]piperidine-1-carboxylate] showed a pIC50 [1] of roughly 5.00, a pIC50 [2] of 5.86 and a pIC50 [3] of 6.99. For the same compound, the pIC50 [4] was 7.48.
With `CC#CCOc1ccc(S(=O)(=O)CC2(C(=O)NO)CCN(C(C)=O)CC2)cc1` [Example 36, 1-Acetyl-4-[[[4-(2-butynyloxy)phenyl]sulfonyl]methyl]-N-hydroxy-4-piperidinecarboxamide] the pIC50 [1] was 5.41, the pIC50 [2] was 5.55 and the pIC50 [3] was 6.42. It also gave a pIC50 [4] of 8.32.
In the case of `CC#CCOc1ccc(S(=O)(=O)CC2(C(=O)NO)CCN(C(=O)NC(C)(C)C)CC2)cc1` [Example 38], the pIC50 [1] was roughly 5.00, the pIC50 [2] was 5.84 and the pIC50 [3] was 6.55. For the same compound, the pIC50 [4] was 7.72.
`CC#CCOc1ccc(S(=O)(=O)CC2(C(=O)NO)CCN(C(=O)OCc3ccccc3)CC2)cc1` [Example 40, Benzyl 4-({[4-(2-butynyloxy)phenyl]sulfonyl}methyl)-4-[(hydroxyamino)-carbonyl]-1-piperidinecarboxylate] was tested, and the pIC50 [1] was 6.15, the pIC50 [2] was 6.37 and the pIC50 [3] was 7.44. For the same compound, the pIC50 [4] was 7.20.
With `CC#CCOc1ccc(S(=O)(=O)CC2(C(=O)NO)CCN(Cc3ccccc3)CC2)cc1` [Example 41] the pIC50 [1] was 5.57, the pIC50 [2] was 5.95 and the pIC50 [3] was 6.60. The pIC50 [4] was 7.43.
`CC#CCOc1ccc(S(=O)(=O)CC2(C(=O)NO)CCN(C(=O)C3(C)COC(C)(C)OC3)CC2)cc1` [Example 42, 4-({[4-(2-Butynyloxy)phenyl]sulfonyl}methyl)-N-hydroxy-1-[(2,2,5-trimethyl-1,3-dioxan-5-yl)carbonyl]-4-piperidinecarboxamide] was tested, and the pIC50 [1] was roughly 5.00, the pIC50 [2] was less than 5.00 and the pIC50 [3] was 5.79. For the same compound, the pIC50 [4] was 7.92.
In the case of `CC#CCOc1ccc(S(=O)(=O)CC2(C(=O)NO)CCN(C(=O)C(C)(CO)CO)CC2)cc1` [Example 43, 4-({[4-(2-Butynyloxy)phenyl]sulfonyl}methyl)-N-hydroxy-1-[3-hydroxy-2-(hydroxymethyl)-2-methylpropanoyl]-4-piperidinecarboxamide], the pIC50 [1] was roughly 5.00, the pIC50 [2] was less than 5.00 and the pIC50 [3] was 5.79. The pIC50 [4] was 7.89.
Compound `CC#CCOc1ccc(S(=O)(=O)CC2(C(=O)NO)CCN(C(=N)N)CC2)cc1` [Example 44] has an MMP1 % inhibition ([1]; printed in the MMP1 IC50 column, concentration not given) of 35%, an MMP9 % inhibition ([2]; printed in the MMP9 IC50 column, concentration not given) of 50.6% and a pIC50 [3] of 5.62. It also gave a pIC50 [4] of 7.25.
For `CC#CCOc1ccc(S(=O)(=O)CC2(C(=O)NO)CCN(CC#CCO)CC2)cc1` [Example 45], the pIC50 [1] was 5.42, the pIC50 [2] was 5.45 and the pIC50 [3] was 6.37. It also gave a pIC50 [4] of 7.60.
Compound `CC#CCOc1ccc(S(=O)(=O)C2(C(=O)NO)CCN(C(C)=O)CC2)cc1` [Example 64, 1-Acetyl-4-(4-but-2-ynyloxybenzenesulfonyl)piperidine-4-carboxylic acid hydroxamide] has a pIC50 [1] of 5.39, a pIC50 [2] of 6.25 and a pIC50 [3] of 6.87. It also gave a pIC50 [4] of 7.33.
For `CC#CCOc1ccc(S(=O)(=O)C2(C(=O)NO)CCN(C(=O)c3ccccc3)CC2)cc1` [Example 65, 1-Benzoyl-4-(4-but-2-ynyloxybenzenesulfonyl)piperidine-4-carboxylic acid hydroxamide], the pIC50 [1] was 5.45, the pIC50 [2] was 6.35 and the pIC50 [3] was 6.98. It also gave a pIC50 [4] of 7.14.
Compound `CC#CCOc1ccc(S(=O)(=O)C2(C(=O)NO)CCN(C(=O)c3ccc(OC)cc3)CC2)cc1` [Example 66, 1-(4-Methoxybenzoyl)-4-(4-but-2-ynyloxybenzenesulfonyl)piperidine-4-carboxylic acid hydroxamide] has a pIC50 [1] of 5.56, a pIC50 [2] of 6.37 and a pIC50 [3] of 7.09. It also gave a pIC50 [4] of 6.97.
Work on `CC#CCOc1ccc(S(=O)(=O)C2(C(=O)NO)CCN(C(=O)N3CCCC3)CC2)cc1` [Example 67, 4-(4-But-2-ynyloxybenzenesulfonyl)-N-hydroxy-1-(pyrrolidine-1-carbonyl)-4-piperidinecarboxamide] yielded a pIC50 [1] of 5.69, a pIC50 [2] of 6.07 and a pIC50 [3] of 6.46. It also gave a pIC50 [4] of 7.14.
`CC#CCOc1ccc(S(=O)(=O)C2(C(=O)NO)CCN(C(=O)OCC)CC2)cc1` [Example 68, Ethyl 4-(4-but-2-ynyloxybenzenesulfonyl)-4-[(hydroxyamino)-carbonyl]-1-piperidinecarboxylate] was tested, and the pIC50 [1] was 5.65, the pIC50 [2] was 5.88 and the pIC50 [3] was 6.30. It also gave a pIC50 [4] of 7.11.
Compound `CC#CCOc1ccc(S(=O)(=O)C2(C(=O)NO)CCN(S(=O)(=O)C(F)(F)F)CC2)cc1` [Example 69, 4-(4-But-2-ynyloxybenzenesulfonyl)-N-hydroxy-1-[(trifluoromethyl)-sulfonyl]-4-piperidinecarboxamide] has a pIC50 [1] of 5.40, a pIC50 [2] of 5.90 and a pIC50 [3] of 6.30. The pIC50 [4] was 6.94.
Work on `CC#CCOc1ccc(S(=O)(=O)C2(C(=O)NO)CCN(C(=O)c3cccnc3)CC2)cc1` [Example 70, 4-(4-But-2-ynyloxybenzenesulfonyl)-N-hydroxy-1-(3-pyridinylcarbonyl)-4-piperidinecarboxamide] yielded a pIC50 [1] of 5.53, a pIC50 [2] of 6.19 and a pIC50 [3] of 6.95. It also gave a pIC50 [4] of 7.06.
With `CC#CCOc1ccc(S(=O)(=O)C2(C(=O)NO)CCN(C(=O)c3cccs3)CC2)cc1` [Example 71, 4-(4-but-2-ynyloxybenzenesulfonyl)-N-hydroxy-1-(2-thienylcarbonyl)-4-piperidinecarboxamide] the pIC50 [1] was 5.51, the pIC50 [2] was 6.09 and the pIC50 [3] was 6.74. It also gave a pIC50 [4] of 6.95.
For `CC#CCOc1ccc(S(=O)(=O)C2(C(=O)NO)CCN(S(=O)(=O)c3ccc(OC)cc3)CC2)cc1` [Example 72, 4-(4-but-2-ynyloxybenzenesulfonyl)-N-hydroxy-1-[(4-methoxyphenyl)-sulfonyl]-4-piperidinecarboxamide], the pIC50 [1] was 5.38, the pIC50 [2] was 5.92 and the pIC50 [3] was 6.43. The pIC50 [4] was 6.66.
Compound `CC#CCOc1ccc(S(=O)(=O)C2(C(=O)NO)CCN(C(=O)C(C)(CO)CO)CC2)cc1` [Example 74, 4-(4-But-2-ynyloxybenzenesulfonyl)-N-hydroxy-1-[3-hydroxy-2-(hydroxymethyl)-2-methylpropanoyl]-4-piperidinecarboxamide] has a pIC50 [1] of 5.36, a pIC50 [2] of 6.02 and a pIC50 [3] of 6.54. The pIC50 [4] was 6.88.
